What follows are molecules tested on HCV genotype 1b replicon in Huh 7 cells (assay: HCV replicon assay (1b_Huh-Luc/Neo-ET cell line, luciferase readout)). Conditions: Hepatitis C virus; Table 1; genotype 1b replicon, Huh 7 cells, 72 h, luciferase; read-out: Inhibition of HCV genotype 1b.
Assay type: cell-based
Method: Biological activity of the compounds of the invention was determined using an HCV replicon assay. The 1b_Huh-Luc/Neo-ET cell line persistently expressing a bicistronic genotype 1b replicon in Huh 7 cells was obtained from ReBLikon GMBH. This cell line was used to test compound inhibition using luciferase enzyme activity readout as a measurement of compound inhibition of replicon levels.
On Day 1 (the day after plating), each compound is added in triplicate to the cells. Plates incubated for 72 h prior to running the luciferase assay. Enzyme activity was measured using a Bright-Glo Kit (cat. number E2620) manufactured by Promega Corporation. The following equation was used to generate a percent control value for each compound. % Control=(Average Compound Value/Average Control)*100
The EC50 value was determined using GraphPad Prism and the following equation: Y=Bottom+(Top−Bottom)/(1+10^((Log IC50−X)*HillSlope))
EC50 values of compounds are repeated several times in the replicon assay.

**Q.** `COC(=O)N[C@H](C(=O)N1CCC[C@H]1c1nc(-c2cnc3cc(-c4ccc(-c5cnc([C@@H]6CCCN6C(=O)[C@H](NC(=O)OC)c6ccccc6)[nH]5)cc4)ccc3c2)c[nH]1)C1CCOCC1` [compound 71] was tested. Which EC50 did it give?
**A.** < 1 nM

**Q.** `COC(=O)N[C@H](C(=O)N1CCC[C@H]1c1nc(-c2cnc3cc(-c4ccc(-c5cnc([C@@H]6CCCN6C(=O)[C@H](NC(=O)OC(C)(C)C)c6ccccc6)[nH]5)cc4)ccc3c2)c[nH]1)C1CCOCC1` [compound 72] was tested. Which EC50 did it give?
**A.** < 1 nM

**Q.** How did the EC50 turn out when `COC(=O)N[C@H](C(=O)N1CCC[C@H]1c1nc(-c2cnc3cc(-c4ccc(-c5cnc([C@@H]6CCCN6C(=O)[C@@H](NC(=O)OC)C6CCOCC6)[nH]5)cc4)ccc3c2)c[nH]1)C1CCOCC1` [compound 73] was run?
**A.** < 1 nM

**Q.** How did the EC50 turn out when `COC(=O)N[C@H](C(=O)N1CCC[C@H]1c1nc(-c2cnc3cc(-c4ccc(-c5cnc([C@@H]6CCCN6C(=O)[C@@H](NC(=O)OC)C(C)C)[nH]5)cn4)ccc3c2)c[nH]1)C(C)C` [compound 74] was run?
**A.** < 1 nM

**Q.** For `COC(=O)N[C@H](C(=O)N1CCC[C@H]1c1nc(-c2cnc3cc(-c4ccc(-c5cnc([C@@H]6CCCN6C(=O)[C@@H](NC(=O)OC)C6CCOCC6)[nH]5)cn4)ccc3c2)c[nH]1)C1CCOCC1` [compound 75], which EC50 is on record?
**A.** < 1 nM

**Q.** For `COC(=O)N[C@H](C(=O)N1CCC[C@H]1c1nc(-c2ccc3[nH]c(-c4ccc(-c5cnc([C@@H]6CCCN6C(=O)[C@@H](NC(=O)OC)C(C)C)[nH]5)cc4)cc(=O)c3c2)c[nH]1)C(C)C` [compound 76], which EC50 is on record?
**A.** < 1 nM

**Q.** How did the EC50 turn out when `COC(=O)N[C@@H](C(=O)N1CCC[C@H]1c1nc(-c2ccc3[nH]c(-c4ccc(-c5cnc([C@@H]6CCCN6C(=O)[C@H](NC(=O)OC)c6ccccc6)[nH]5)cc4)cc(=O)c3c2)c[nH]1)c1ccccc1` [compound 77] was run?
**A.** 10 to 999 nM

**Q.** With `COC(=O)N[C@@H](C(=O)N1CCC[C@H]1c1nc(-c2ccc3nc(-c4ccc(-c5cnc([C@@H]6CCCN6C(=O)[C@H](NC(=O)OC)c6ccccc6)[nH]5)cc4)cc(OC)c3c2)c[nH]1)c1ccccc1` [compound 78] as the molecule, how does the EC50 read?
**A.** < 1 nM

**Q.** With `COC(=O)N[C@H](C(=O)N1CCC[C@H]1c1nc(-c2ccc3nc(-c4ccc(-c5cnc([C@@H]6CCCN6C(=O)[C@@H](NC(=O)OC)C(C)C)[nH]5)cc4)cc(OC)c3c2)c[nH]1)C(C)C` [compound 79] as the molecule, how does the EC50 read?
**A.** < 1 nM

**Q.** How did the EC50 turn out when `COC(=O)N[C@@H](C(=O)N1CCC[C@H]1c1nc(-c2cnc3cc(-c4ccc(-c5cnc([C@@H]6CCCN6C(=O)[C@H](NC(=O)OC)c6ccccc6)[nH]5)cn4)ccc3c2)c[nH]1)c1ccccc1` [compound 80] was run?
**A.** < 1 nM

**Q.** `COC(=O)N[C@H](C(=O)N1CCC[C@H]1c1ncc(-c2ccc(-c3ccc4cc(-c5c[nH]c([C@@H]6CCCN6C(=O)[C@H](NC(=O)OC6CCOCC6)c6ccccc6)n5)cnc4c3)nc2)[nH]1)C(C)C` [compound 81] was tested. Which EC50 did it give?
**A.** < 1 nM

**Q.** Which EC50 does the source give for `COC(=O)N[C@H](C(=O)N1CCC[C@H]1c1ncc(-c2ccc(-c3ccc4cc(-c5c[nH]c([C@@H]6CCCN6C(=O)[C@H](NC(=O)OC(C)(C)C)c6ccccc6)n5)cnc4c3)nc2)[nH]1)C(C)C` [compound 82] here?
**A.** < 1 nM

**Q.** `COC(=O)N[C@H](C(=O)N1CCC[C@H]1c1nc(-c2ccc3cc(-c4ccc(-c5cnc([C@@H]6CCCN6C(=O)[C@@H](NC(=O)OC)C(C)C)[nH]5)nc4)ccc3c2)c[nH]1)C(C)C` [compound 83] was tested. Which EC50 did it give?
**A.** < 1 nM

**Q.** Which EC50 does the source give for `COC(=O)N[C@H](C(=O)N1CCC[C@H]1c1nc(-c2ccc3cc(-c4ccc(-c5cnc([C@@H]6CCCN6C(=O)[C@@H](NC(=O)OC)C6CCOCC6)[nH]5)nc4)ccc3c2)c[nH]1)C(C)C` [compound 84] here?
**A.** < 1 nM

**Q.** With `COC(=O)N[C@H](C(=O)N1CCC[C@H]1c1nc(-c2ccc3cc(-c4ccc(-c5cnc([C@@H]6CCCN6C(=O)[C@@H](NC(=O)OC)C(C)C)[nH]5)cc4C)ccc3c2)c[nH]1)C(C)C` [compound 85] as the molecule, how does the EC50 read?
**A.** < 1 nM

**Q.** With `COC(=O)N[C@H](C(=O)N1CCC[C@H]1c1nc(-c2ccc3cc(-c4ccc(-c5cnc([C@@H]6CCCN6C(=O)[C@@H](NC(=O)OC)C6CCOCC6)[nH]5)cc4C)ccc3c2)c[nH]1)C(C)C` [compound 86] as the molecule, how does the EC50 read?
**A.** < 1 nM

**Q.** With `COC(=O)N[C@H](C(=O)N1CCC[C@H]1c1ncc(-c2ccc(-c3ccc4cc(-c5c[nH]c([C@@H]6CCCN6C(=O)[C@H](NC(=O)OC)c6ccccc6)n5)ccc4c3)c(C)c2)[nH]1)C(C)C` [compound 87] as the molecule, how does the EC50 read?
**A.** < 1 nM

**Q.** For `COC(=O)N[C@H](C(=O)N1CCC[C@H]1c1nc(-c2cnc3cc(-c4ccc(-c5cnc([C@@H]6CCCN6C(=O)[C@H](NC(=O)OC6CCOCC6)c6ccccc6)[nH]5)cc4)ccc3c2)c[nH]1)C(C)C` [compound 88], which EC50 is on record?
**A.** < 1 nM

**Q.** Which EC50 does the source give for `COC(=O)N[C@H](C(=O)N1CCC[C@H]1c1nc(-c2cnc3cc(-c4ccc(-c5cnc([C@@H]6CCCN6C(=O)[C@H](NC(=O)OC6CCOCC6)c6ccccc6)[nH]5)cc4)ccc3c2)c[nH]1)C1CCOCC1` [compound 89] here?
**A.** < 1 nM

**Q.** `COC(=O)N[C@H](C(=O)N1CCC[C@H]1c1ncc(-c2ccc(-c3ccc4cc(-c5c[nH]c([C@@H]6CCCN6C(=O)[C@H](NC(=O)OC)c6ccccc6)n5)ccc4n3)cc2)[nH]1)C1CCOCC1` [compound 90] was tested. Which EC50 did it give?
**A.** < 1 nM

**Q.** `COC(=O)N[C@H](C(=O)N1CCC[C@H]1c1ncc(-c2ccc(-c3ccc4cc(-c5c[nH]c([C@@H]6CCCN6C(=O)[C@H](NC(=O)OC(C)(C)C)c6ccccc6)n5)ccc4n3)cc2)[nH]1)C1CCOCC1` [compound 91] was tested. Which EC50 did it give?
**A.** < 1 nM

**Q.** Which EC50 does the source give for `COC(=O)N[C@H](C(=O)N1CCC[C@H]1c1ncc(-c2ccc(-c3ccc4cc(-c5c[nH]c([C@@H]6CCCN6C(=O)[C@H](NC(=O)OC6CCOCC6)c6ccccc6)n5)ccc4n3)cc2)[nH]1)C1CCOCC1` [compound 92] here?
**A.** < 1 nM

**Q.** `COC(=O)N[C@H](C(=O)N1CCC[C@H]1c1nc(-c2cnc3cc(-c4ccc(-c5cnc([C@@H]6CCCN6C(=O)[C@@H](NC(=O)OC)C(C)C)[nH]5)nc4)ccc3c2)c[nH]1)C(C)C` [compound 93] was tested. Which EC50 did it give?
**A.** < 1 nM

**Q.** Which EC50 does the source give for `COC(=O)N[C@H](C(=O)N1CCC[C@H]1c1ncc(-c2ccc(-c3ccc4cc(-c5c[nH]c([C@@H]6CCCN6C(=O)[C@H](NC(=O)OC)c6ccccc6)n5)cnc4c3)cn2)[nH]1)C(C)C` [compound 94] here?
**A.** < 1 nM

**Q.** `COC(=O)N[C@H](C(=O)N1CCC[C@H]1c1ncc(-c2ccc(-c3ccc4cc(-c5c[nH]c([C@@H]6CCCN6C(=O)[C@@H](NC(=O)OC)C6CCOCC6)n5)cnc4c3)cn2)[nH]1)C(C)C` [compound 95] was tested. Which EC50 did it give?
**A.** < 1 nM

**Q.** How did the EC50 turn out when `COC(=O)N[C@H](C(=O)N1CCC[C@H]1c1nc(-c2ccc3nc(-c4ccc(-c5cnc([C@@H]6CCCN6C(=O)[C@@H](NC(=O)OC)C(C)C)[nH]5)cc4F)ccc3c2)c[nH]1)C(C)C` [compound 96] was run?
**A.** < 1 nM

**Q.** `COC(=O)N[C@@H](C(=O)N1CCC[C@H]1c1nc(-c2ccc3nc(-c4ccc(-c5cnc([C@@H]6CCCN6C(=O)[C@H](NC(=O)OC)c6ccccc6)[nH]5)cc4F)ccc3c2)c[nH]1)c1ccccc1` [compound 97] was tested. Which EC50 did it give?
**A.** < 1 nM

**Q.** Which EC50 does the source give for `COC(=O)N[C@H](C(=O)N1CCC[C@H]1c1nc(-c2ccc3nc(-c4ccc(-c5cnc([C@@H]6CCCN6C(=O)[C@@H](NC(=O)OC)C6CCOCC6)[nH]5)cc4F)ccc3c2)c[nH]1)C1CCOCC1` [compound 98] here?
**A.** < 1 nM

**Q.** `COC(=O)N[C@H](C(=O)N1CCC[C@H]1c1nc(-c2ccc3cc(-c4ccc(-c5cnc([C@@H]6CCCN6C(=O)[C@H](NC(=O)OC)c6ccccc6)[nH]5)cc4)ccc3c2)c[nH]1)C1CCOCC1` [compound 99] was tested. Which EC50 did it give?
**A.** < 1 nM

**Q.** How did the EC50 turn out when `COC(=O)N[C@H](C(=O)N1CCC[C@H]1c1nc(-c2ccc3cc(-c4ccc(-c5cnc([C@@H]6CCCN6C(=O)[C@H](NC(=O)OC)c6ccccc6)[nH]5)cc4)ncc3c2)c[nH]1)C1CCOCC1` [compound 100] was run?
**A.** < 1 nM

**Q.** For `COC(=O)N[C@H](C(=O)N1CCC[C@H]1c1ncc(-c2ccc(-c3cc4ccc(-c5c[nH]c([C@@H]6CCCN6C(=O)[C@H](NC(=O)OC)c6ccccc6)n5)cc4cn3)cc2)[nH]1)C1CCOCC1` [compound 101], which EC50 is on record?
**A.** < 1 nM

**Q.** For `COC(=O)N[C@H](C(=O)N1CCC[C@H]1c1nc(-c2ccc3cc(-c4ccc(-c5cnc([C@@H]6CCCN6C(=O)[C@@H](NC(=O)OC)C(C)C)[nH]5)cc4)ccc3n2)c[nH]1)C(C)C` [compound 102], which EC50 is on record?
**A.** < 1 nM

**Q.** For `COC(=O)N[C@H](C(=O)N1CCC[C@H]1c1ncc(-c2ccc(-c3ccc4nc(-c5c[nH]c([C@@H]6CCCN6C(=O)[C@H](NC(=O)OC)c6ccccc6)n5)ccc4c3)cc2)[nH]1)C(C)C` [compound 103], which EC50 is on record?
**A.** < 1 nM

**Q.** For `COC(=O)N[C@H](C(=O)N1CCC[C@H]1c1ncc(-c2ccc(-c3ccc4cc(-c5c[nH]c([C@@H]6CCCN6C(=O)[C@@H](NC(=O)OC)C6CCOCC6)n5)ccc4c3)c(C)c2)[nH]1)C(C)C` [compound 104], which EC50 is on record?
**A.** < 1 nM

**Q.** With `COC(=O)N[C@H](C(=O)N1CCC[C@H]1c1ncc(-c2ccc(-c3ccc4cc(-c5c[nH]c([C@@H]6CCCN6C(=O)[C@H](NC(=O)OC)c6ccccc6)n5)ccc4c3)cc2)[nH]1)C1CCOCC1` [compound 105] as the molecule, how does the EC50 read?
**A.** < 1 nM

**Q.** For `COC(=O)N[C@H](C(=O)N1CCC[C@H]1c1ncc(-c2ccc(-c3ccc4cc(-c5c[nH]c([C@@H]6CCCN6C(=O)[C@H](NC(=O)OC)c6ccccc6)n5)ccc4c3)c(F)c2)[nH]1)C1CCOCC1` [compound 106], which EC50 is on record?
**A.** < 1 nM

**Q.** For `COC(=O)N[C@H](C(=O)N1CCC[C@H]1c1nc(-c2ccc3nc(-c4ccc(-c5cnc([C@@H]6CCCN6C(=O)[C@H](NC(=O)OC)c6ccccc6)[nH]5)cc4F)ccc3c2)c[nH]1)C(C)C` [compound 107], which EC50 is on record?
**A.** < 1 nM

**Q.** Which EC50 does the source give for `COC(=O)N[C@H](C(=O)N1CCC[C@H]1c1nc(-c2ccc3nc(-c4ccc(-c5cnc([C@@H]6CCCN6C(=O)[C@@H](NC(=O)OC)C6CCOCC6)[nH]5)c(F)c4)ccc3c2)c[nH]1)C1CCOCC1` [compound 108] here?
**A.** < 1 nM

**Q.** `COC(=O)N[C@@H](C(=O)N1CCC[C@H]1c1nc(-c2ccc3nc(-c4ccc(-c5cnc([C@@H]6CCCN6C(=O)[C@H](NC(=O)OC)c6ccccc6)[nH]5)c(F)c4)ccc3c2)c[nH]1)c1ccccc1` [compound 109] was tested. Which EC50 did it give?
**A.** < 1 nM
